In US20030008807A1, “Novel signaling pathway for the production of inflammatory pain and neuropathy” (The Regents of the University of California, priority 2001, published 2003):
“Also recorded” adds a separate entry of the source.

Tests used:
[1] = tested on: alcohol-induced hyperalgesia; test: Alcohol-induced painful peripheral neuropathy, Randall-Selitto paw-withdrawal test; type: in vivo, rat
Source text: (§1) The role of Ras-MEK-ERK 1/2 cascade in painful peripheral neuropathy has been evaluated in three rodent models of common clinical conditions in which patients experience painful peripheral neuropathy. The three models are as follows: 1) Taxol® (a major cancer chemotherapy agent)-induced painful peripheral neuropathy (Dina, O. A., et al., (2001) Role of protein kinase C-epsilon and protein kinase A in a model of paclitaxel-induced painful peripheral neuropathy in the rat. Neuroscience 108:507-515); 2) vincristine (another cancer chemotherapy agent)-induced painful peripheral neuropathy (Aley, K. O., et al., (1996) Vincristine hyperalgesia in the rat: a possible modelfor painful vincristine neuropathy in humans. Neuroscience 73:259-265; Tanner, K. D., et al., (1998) Nociceptor hyper-responsiveness during vincristine-induced painful peripheral neuropathy in the rat. J. Neuroscience 18:6480-6491; Tanner, K. D., et al., (1998) Microtubule disorientation and axonal swelling in unmyelinated sensory axons during vincristine-induced painful neuropathy in rat. J. Comp. Neurol., 395:481-492; and, Tanner, K. D., et al., (2002) Altered temporal patterning of afferent activity in a rat model of vincristine-induced peripheral neuropathy (Submitted -Neuroscience).); and, 3) alcohol-induced painful peripheral neuropathy (Dina, O. A., et al., (2000) Key role for the epsilon isoform of protein kinase C in painful alcoholic neuropathy in the rat. J. Neurosci. 20:8614-8619). In all three models, inhibition of MEK by a MEK inhibitor, PD98509, produced either a moderate (Taxol and vincristine) or profound (alcohol) reversal of the painful peripheral neuropathy. In the third model, alcohol-induced painful peripheral neuropathy, a second inhibitor of the Ras-MEK-ERK 1/2 cascade, which was MEK inhibitor U0126, was also employed.
The pain threshold in normal rats was approximately 110 grams, using the Randall-Selitto paw-withdrawal threshold test (plotted as percentage change in nociceptive threshold). Following chronic consumption of a diet in which alcohol replaced calories, but not other nutrients, in the normal diet, the threshold fell to approximately 70 grams. […] See FIG. 13A, which illustrates results from female rats and FIG. 13B, which illustrates results from male rats.

[2] = tested on: ERK1/2; test: Epinephrine-stimulated ERK1/2 phosphorylation in cultured rat DRG neurons (Western analysis); type: cell-based; settings: for effect on epinephrine-induced ERK phosphorylation: 1 μM epinephrine 5 min, ICI 118,551 100 nM, U0126 10 μM, H89 1 μM, calphostin C 1 μM
Procedure: Trypsin was inactivated by adding 100 μg/ml soybean trypsin inhibitor and 2.5 mg/ml MgSO4. The cells were centrifuged at 300×g for 5 min and resuspended culture media containing minimal essential medium (MEM) supplemented with 10% heat-inactivated fetal calf serum, 1×MEM vitamins, and 1000 U/ml each of penicillin and streptomycin. The culture was enriched for neurons by preplating on 100 mm culture dishes pretreated with 0.1 mg/ml poly-DL-ornithine in 15 mM sodium borate buffer. After culture for 15-20 hr, the loosely attached neuronal cells were collected and plated for 3 hr on six-well plates coated with 0.1 mg/ml poly-DL-ornithine and 1 mg/ml laminin.
After drug treatment, cells from neuron-enriched DRG cultures were collected and centrifuged at 300×g for 5 min at 4° C. […] Blots were incubated with anti-phospho-p42/44 MAP kinase antibody (diluted 1:500 in blocking buffer) overnight at 4° C. Blots were rinsed three times in PBS-T and incubated in blocking buffer containing HRP-conjugated goat anti-rabbit IgG (diluted 1:1000; Boehringer Mannheim, Indianapolis, Ind.) for 1 hr at 27° C. Immunoreactive bands were visualized by enhanced chemiluminescence (Amersham Pharmacia Biotech, Piscataway, N.J.). The membranes were then stripped of antibodies by incubation in 200 mM NaOH for 20 min at 27° C. […] After three washes in PBS-T, blots were incubated with HRP-conjugated goat anti-rabbit IgG (diluted 1:1000; Boehringer Mannheim) for 1 hr at 27° C., and immunoreactive bands were visualized by enhanced chemiluminescence and autoradiography. […] Data were normalized by dividing values obtained for phospho-ERK1 and phospho-ERK2 immunoreactivity by the value obtained for total ERK1 immunoreactivity for each sample.

[3] = tested on: mechanical nociceptive threshold; settings: rat, in vivo; cited from earlier work
[4] = tested on: mechanical nociceptive threshold; test: Epinephrine-induced hyperalgesia in gonad-intact and gonadectomized male and female rats (Example 2); settings: inhibitor 1 μg, epinephrine 100 ng intradermal
Procedure: The nociceptive flexion reflex was quantified using the Randall-Selitto paw pressure device (Analgesymeter, Stoetling, Chicago, Ill., USA), which applies a linearly increasing mechanical force to the dorsum of the rat's hind paw. The mechanical nociceptive threshold was defined as the force in grams at which the rat withdrew its paw. […] Baseline paw-withdrawal threshold was defined as the mean of six readings before test agents were injected. […] Each group of rats was treated with only one agonist and/or antagonist injected peripherally by the intradermal route. […] All behavioural testing was done between 10.00 and 16.00 h. […] The protein kinase inhibitor was separated from the distilled water by drawing up a small air bubble (<1 μL) into the syringe after drawing up the protein kinase inhibitor but before drawing up the distilled water.
A stock solution of PGE2 (4 mg/mL) was made by dissolving it in 10% ethanol in normal saline; further dilution to 100 ng was made by addition of saline. Final concentration of ethanol was <10%. […] Stock solutions (1 μg/μL) of inhibitors were stored at −20° C. […] Inhibitors were injected at a concentration of 1 μg/2.5 μL.

[5] = tested on: mechanical nociceptive threshold; test: Prostaglandin E2-induced hyperalgesia in male and female rats (Example 2); type: in vivo, rat
Source text: The nociceptive flexion reflex was quantified using the Randall-Selitto paw pressure device (Analgesymeter, Stoetling, Chicago, Ill., USA), which applies a linearly increasing mechanical force to the dorsum of the rat's hind paw. The mechanical nociceptive threshold was defined as the force in grams at which the rat withdrew its paw. The protocols for this procedure have been previously described (Taiwo et al., (1989) The contribution of training to sensitivity in the nociceptive paw-withdrawal test. Brain Res., 487:148-151). Rats were familiarized in the testing procedure, at 5-min intervals for a period of 1 h per day for 3 days in the week preceding the experiment, to decrease variance in nociceptive thresholds (Taiwo et al., (1989), supra). Baseline paw-withdrawal threshold was defined as the mean of six readings before test agents were injected. Each paw was treated as an independent measure (Taiwo et al., (1989), supra) and each experiment was performed on a separate group of rats. Each group of rats was treated with only one agonist and/or antagonist injected peripherally by the intradermal route. It has been shown in previous studies that these agents, which are injected using the protocol described, exert a peripheral rather than central action (Khasar et al., (1995), supra; and, Khasar et al., (1999b), supra). The dose-response relationship for the effect of epinephrine was determined over a dose range of 1 ng-1 μg. All behavioural testing was done between 10.00 and 16.00 h. The blocking agents, with and without epinephrine (Khasar et al., (1999b), supra) or prostaglandin E2 (PGE2) (Aley et al., (1998), supra; Aley & Levine, (1999), supra; and, Aley et al., (2000) Chronic hypersensitivity for inflammatory nociceptor sensitization mediated by the epsilon isozyme of protein kinase C. J. Neurosci., 20:4680-4685), were injected as described previously (Khasar et al., (1995), supra; and, Khasar et al., (1999b), supra). […]

[6] = tested on: vincristine-induced hyperalgesia; test: Vincristine-induced painful peripheral neuropathy, Randall-Selitto paw-withdrawal test; type: in vivo, rat; settings: male and female rats; normal approximately 110 grams
Source text: as §1
The pain threshold in normal male and female rats was approximately 110 grams, using the Randall-Selitto paw-withdrawal test (plotted as absolute change in nociceptive threshold). Following administration of vincristine, the threshold fell to approximately 65 grams.

[7] = tested on: Taxol-induced hyperalgesia; test: Taxol-induced painful peripheral neuropathy, Randall-Selitto paw-withdrawal test; type: in vivo, rat; settings: male and female rats; normal approximately 110 grams
Source text: as §1
The pain threshold in normal male and female rats was approximately 110 grams, using the Randall-Selitto paw-withdrawal test (plotted as absolute change in nociceptive threshold). Following administration of Taxol, the threshold fell to approximately 70 grams.

[8] = tested on: mechanical nociceptive threshold; test: Epinephrine-induced mechanical hyperalgesia, Randall-Selitto paw-withdrawal test (Example 1); settings: intradermal, inhibitor 1 μg plus epinephrine 100 ng, male rats
Source text: The nociceptive flexion reflex (Randall-Selitto paw-withdrawal test) was quantified with a Basile Analge-symeter (Stoelting, Chicago, Ill.), which applies a linearly increasing mechanical force to the dorsum of the rat's hindpaw. The mechanical nociceptive threshold was defined as the force in grams at which the rat withdrew its paw. […] They were allowed to crawl into individual cylindrical Perspex blocks and were lightly restrained there by closing both ends of the cylinder. […] The rats were allowed to acclimatize to the restrainer for 5-10 min, after which the hindpaws were exposed to the test stimulus. Three readings were taken at 5 min intervals, and their mean was considered the baseline threshold. After each drug administration, mechanical paw-withdrawal thresholds were determined again as the mean of three readings taken 20, 25, and 30 min after injection.
Inhibitors were diluted with distilled water before intra-dermal injections into the paw using a 10 μl microsyringe (Hamilton, Reno, Nev.). Injections of peptides (1 μg/2.5 μl) were always preceded by injection of distilled water (2.5 μl) to produce hypo-osmotic shock. […] Paw-withdrawal thresholds were measured again 10, 15, and 20 min after injecting the test agent. The mean of the paw-withdrawal thresholds obtained at these three times was then taken as the mechanical nociceptive threshold at the dose of the test agent used. The effect of each dose a test agent was calculated as the percentage change from baseline.

## CCO [alcohol]
[1]; female rats (FIG. 13A)
  threshold following chronic consumption of alcohol diet: approximately 70 grams
[1]; male rats (FIG. 13B)
  threshold following chronic consumption of alcohol diet: approximately 70 grams
[1]; normal approximately 110 grams
  pain threshold following chronic consumption of alcohol diet: approximately 70 grams

## Cc1ccc(OCC(O)C(C)NC(C)C)c2c1CCC2 (stereo not drawn) [ICI 118,551]
[2]
  effect on epinephrine-induced ERK phosphorylation: inhibited
[2]; unstimulated cultures
  effect on basal ERK phosphorylation: did not inhibit

## CC(C)NCC(O)COc1cccc2ccccc12 (stereo not drawn) [propranolol]
[3]
  effect on epinephrine hyperalgesia in the rat (previously demonstrated): significantly attenuated
[4]; intact female rats
  effect on epinephrine-induced hyperalgesia: inhibited
[4]; intact male rats
  effect on epinephrine-induced hyperalgesia: inhibited

## CNC(=N)NCCC[C@H](N)C(=O)O [L-NMA, NG-methyl-L-arginine]
[5]; both sexes, gonad-intact, inhibitor 1 μg, PGE2 100 ng intradermal
  effect on prostaglandin E2-induced hyperalgesia: significantly blocked; also recorded: inhibited to a similar degree
[4]; gonadectomized female rats
  effect on epinephrine-induced hyperalgesia: significantly antagonized
[4]; gonadectomized male rats
  effect on epinephrine-induced hyperalgesia: significantly antagonized
[4]; intact female rats
  effect on epinephrine-induced hyperalgesia: did not have a significant effect
[4]; intact male rats
  effect on epinephrine-induced hyperalgesia: significantly antagonized

## CC[C@]1(O)C[C@H]2CN(CCc3c([nH]c4ccccc34)[C@@](C(=O)OC)(c3cc4c(cc3OC)N(C=O)[C@H]3[C@@](O)(C(=O)OC)[C@H](OC(C)=O)[C@]5(CC)C=CCN6CC[C@]43[C@@H]65)C2)C1 [vincristine]
[6]
  pain threshold following administration of vincristine: approximately 65 grams

## CC(=O)O[C@H]1C(=O)[C@@]2(C)[C@H]([C@H](OC(=O)c3ccccc3)[C@]3(O)C[C@H](OC(=O)[C@H](O)[C@@H](NC(=O)c4ccccc4)c4ccccc4)C(C)=C1C3(C)C)[C@]1(OC(C)=O)CO[C@@H]1C[C@@H]2O [Taxol]
[7]
  pain threshold following administration of Taxol: approximately 70 grams

## CCCCC[C@H](O)/C=C/[C@H]1[C@H](O)CC(=O)[C@@H]1C/C=C\CCCC(=O)O [prostaglandin E2]
[5]; PGE2 100 ng
  magnitude of hyperalgesia in intact female rats vs males: greater

## pertussis toxin
[8]
  effect on epinephrine-induced mechanical hyperalgesia: reduced
[2]; pertussis toxin or 1 μM FTase I for 16 hr, then 1 μM epinephrine
  effect on epinephrine-induced phosphorylation of ERK1/2: prevented; also recorded: inhibit

## C=C(C)[C@@H]1CC=C(C(=O)O)CC1 [perillic acid]
[8]
  effect on epinephrine-induced mechanical hyperalgesia: reduced

## calphostin C
[2]
  effect on epinephrine-induced ERK phosphorylation: did not reduce

## O=S(=O)(NCCNCC=Cc1ccc(Br)cc1)c1cccc2cnccc12 [H89, N-[2-(p-bromocinnamylamino)ethyl]-5-isoquinolinesulfonamide]
[8]
  effect on epinephrine-induced mechanical hyperalgesia: did not block
[2]
  effect on epinephrine-induced ERK phosphorylation: did not reduce; also recorded: did not block

## Cc1ccc(N(CC2=NCCN2)c2cccc(O)c2)cc1 [phentolamine]
[3]
  effect on epinephrine hyperalgesia in the rat (previously demonstrated): not

B1: NGF: mouse 2.5 S nerve growth factor, positive control for ERK1/2 phosphorylation (protein, UniProt P01139 122-241, looked up)
Beta-nerve growth factor: SSTHPVFHMGEFSVCDSVSVWVGDKTTATDIKGKEVTVLAEVNINNSVFRQYFFETKCRASNPVESGCRGIDSKHWNSYCTTTHTFVKALTTDEKQAAWRFIRIDTACVCVLSRKATRRG
modifications: Beta-nerve growth factor
notes: mouse 2.5 S nerve growth factor, positive control for ERK1/2 phosphorylation
[2]; epinephrine for indicated times, NGF 50 ng/ml 5 min
  ERK1/2 phosphorylation (representative Western blot): stimulation
